Where “and” joins values, the source holds several entries; their conditions need not be identical. Identical values can stand only once.
Key:
[1] = target: T1, Gox0644 (Gluconobacter oxydans, UniProt Q5FT75); test: NADPH-dependent α-ketocarbonyl reductase activity assay (rate of decrease of NADPH at 340 nm); assay type: biochemical; details: for Gox0644 U/mg*: Table 3, 10 mM substrate, 40 mM K-phosphate buffer pH 7.0, 0.05 mM NAD(P)H, 30 °C, U/mg = µmol x min^-1 x mg protein^-1
Experimental: Reactions were induced by addition of enzyme or substrate. One unit was defined as the amount of enzyme activity catalyzing the conversion of 1 µmol of pyridine nucleotide per min at 30 °C. NMR Analysis of Biotransformation Products: Biotransformations were extracted with equal volumes of CDCl3. and ^13C NMR spectra were recorded on a Bruker Avance 300 DPX spectrometer operating at 300 MHz for ^1H NMR and at 75 MHz for ^13C NMR, respectively.
Reactions were induced by addition of enzyme or substrate. One unit of activity was defined as the amount of enzyme activity catalyzing the conversion of 1 µmol of pyridine nucleotide per min at 30 °C.
The standard reaction mixture (1 ml) for the reduction reactions of substrates contained 10 mM substrate, 40 mM potassium phosphate buffer (K-phosphate buffer) pH 7.0, 0.05 mM NAD(P)H, and the enzyme unless otherwise noted. Reactions were induced by addition of enzyme or substrate. One unit of activity was defined as the amount of enzyme activity catalyzing the conversion of 1 µmol of pyridine nucleotide per min at 30 °C. […] Table 3: Enzymatic activities with α-diketones, α-ketoaldehydes and α-ketoesters

[2] = target: T2, Gox1615 (Gluconobacter oxydans, UniProt Q5FQJ0); test: as above; assay type: biochemical; details: for Gox1615 U/mg*: Table 3, 10 mM substrate, 40 mM K-phosphate buffer pH 7.0, 0.05 mM NAD(P)H, 30 °C, U/mg = µmol x min^-1 x mg protein^-1; for Specific Activity (U/mg)*: Table 5, cofactor NADPH, U/mg = µmol/mg·min
T2 sequence (Q5FQJ0 1-332): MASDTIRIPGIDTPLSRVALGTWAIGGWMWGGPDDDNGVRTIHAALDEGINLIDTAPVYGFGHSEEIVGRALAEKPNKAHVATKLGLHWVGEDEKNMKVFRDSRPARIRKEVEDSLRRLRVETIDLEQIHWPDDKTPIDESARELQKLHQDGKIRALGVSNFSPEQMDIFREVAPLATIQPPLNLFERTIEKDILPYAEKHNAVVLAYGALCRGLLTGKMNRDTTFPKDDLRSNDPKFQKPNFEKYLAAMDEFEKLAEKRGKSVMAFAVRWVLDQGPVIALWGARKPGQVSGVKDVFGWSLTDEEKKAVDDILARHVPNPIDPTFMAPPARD
Experimental: (§1) Measurement of enzyme activity: NADPH-dependent α-ketocarbonyl reductases were assayed by a routine method used for NAD(P)-linked enzymes by recording the rate of decrease of NADPH at 340 nm (ε = 6.22 mM^-1 x cm^-1)) with substrates at 30 °C. The reaction mixture (1 ml) for reduction of α-ketocarbonyl substrates contained 10 mM substrate, 40 mM potassium phosphate buffer pH 7.0, 0.025 mM NAD(P)H and the enzyme. Reactions were induced by addition of enzyme or substrate. One unit was defined as the amount of enzyme activity catalyzing the conversion of 1 µmol of pyridine nucleotide per min at 30 °C. NMR Analysis of Biotransformation Products: Biotransformations were extracted with equal volumes of CDCl3. and ^13C NMR spectra were recorded on a Bruker Avance 300 DPX spectrometer operating at 300 MHz for ^1H NMR and at 75 MHz for ^13C NMR, respectively. Spectra were processed using Bruker TonSpin 1.3 for Windows software and calibrated to the residual solvent peak of CDCl3 (δH = 7.26 / δC = 77.0).
NADPH-dependent α-ketocarbonyl reductases were assayed by a routine method used for NAD(P)-linked enzymes by recording the rate of decrease of NADPH at 340 nm (ε = 6.22 mM^-1.cm^-1) with substrates at 30 °C. The reaction mixture (1 ml) for reduction of α-ketocarbonyl substrates contained 10 mM substrate, 40 mM potassium phosphate buffer pH 7.0, 0.025 mM NADPH, and the enzyme. Reactions were induced by addition of enzyme or substrate. One unit of activity was defined as the amount of enzyme activity catalyzing the conversion of 1 µmol of pyridine nucleotide per min at 30 °C.
Purified NAD(P)-dependent oxidoreductases were assayed at 30 °C by a routine method used for NAD(P)-linked enzymes by recording the rate of decrease of NAD(P)H at 340 nm (ε = 6.22 mM^-1˙cm^-1) with substrates capable of reduction reactions. The standard reaction mixture (1 ml) for the reduction reactions of substrates contained 10 mM substrate, 40 mM potassium phosphate buffer (K-phosphate buffer) pH 7.0, 0.05 mM NAD(P)H, and the enzyme unless otherwise noted. Reactions were induced by addition of enzyme or substrate. One unit of activity was defined as the amount of enzyme activity catalyzing the conversion of 1 µmol of pyridine nucleotide per min at 30 °C. Measurement of the protein content was performed by the method of Bradford (Bradford M.M., Anal. Biochem. 72:248-254 (1976)). Table 3: Enzymatic activities with α-diketones, α-ketoaldehydes and α-ketoesters

[3] = target: T2, Gox1615; test: Kinetic constants from purified enzyme by Lineweaver-Burk plots; assay type: biochemical
Experimental: (§2) Determination of pH and temperature optima and enzyme kinetics: The optimum pH for enzyme activities was determined by a modified method of Salusjärvi, T. et al., Appl. Microbiol. Biotechnol. 65:306-314 (2004) using the following buffer system (50 mM final concentration each): sodium acetate pH 4.5 - 6.5, potassium phosphate pH 6.5 - 8.0, Tris-HCl pH 8.0 - 10. Temperature optima for the biocatalysts were determined under standard reaction conditions at temperatures ranging from 20 - 80 °C. The Michaelis constant (Km) for the proteins was determined from purified enzyme by Lineweaver-Burk plots. Assays were performed at optimum pH for each enzyme and at 30 °C using the best substrate and a targeted substrate. The Km for each substrate was calculated using concentrations of 0.0025 to 10 mM, and the Km NAD(P)H and NAD(P) was calculated using concentrations of 0.01 to 0.5 mM
(§3) 2.9 Kinetic parameters of the keto carbonyl reductases: Kinetic constants were determined from purified enzyme by Lineweaver-Burk plots. The Km and Vmax values for the substrates were calculated using concentrations of 0.025 to 10 mM. The optimal pH values and temperatures for enzyme activities are also shown in Tab. 8. Table 8: Summary of kinetic parameters

[4] = target: T1, Gox0644; test: Coupled-enzyme biotransformation with cofactor regeneration, product determined by NMR (regio- and stereoselectivity); assay type: biochemical
Experimental: as §1
Determination of the absolute configuration of the biotransformation product 2-hydroxy-pentan-3-one using chiral NMR shift solvents: Chiral NMR shift reagent (R,R)- and (S,S)-bis-α-methylbenzylamine-para-methyl (BMBA-p-Me) was prepared with small modifications according to the method reported by Kobayashi, Y et al., Tetrahedron Lett. 44: 7489-7491 (2003). In brief, the method of Marshall, J.A. and Mikowski, A. M., Org. Lett. 8:4375-4378 (2006) was used to synthesize 1,3-dibromo-2-methylpropane from 1,3-dihydroxy-2-methylpropane. Diisopropylethylamine (25.5 g), triphenylphosphine (20.1 g) and CBr4 (25.5 g) were sequentially added to a stirring solution of […] in 100 ml CH2Cl2 at 0 °C. The reaction was stirred for 3-4 h at 0 °C and concentrated under reduced pressure to give a green-brown oil. The oil was dissolved in diethyl ether and water (100 ml each) and the aqueous layer was extracted three times with diethyl ether. The organic extracts were combined and washed with water and brine, and dried over MgSO4. The reaction was concentrated under reduced pressure and applied to flash chromatography on silica 60 (230-400 mesh, 100% cyclohexane). Fractions containing the 1,3-dibromo-2-methylpropane product were combined (as judged by Si-TLC [100% cyclohexene]) and concentrated under reduced pressure resulting in a brown-yellow oil. The dibromopropane oil was used for the synthesis of (R,R)- and (S,S)-BMBA-p-Me as described by (Kobayashi, Y. et al., Org. Lett. 4(3):411-414 (2002). The crude oil was distilled by Kugelrohr at 240 °C to give crude BMPA-p-Me (yellow oil). BMBA-p-Me was purified by HPLC using a C18 column (Waters Xterra, 250 x 4.6 mm) at a flow rate of 0.8 ml min^-1 and a 40 min linear gradient of 50-100 % MeOH at ambient temperature. Fractions were concentrated under reduced pressure and BMBA-p-Me was identified by ^1H-NMR (colorless hygroscopic oil).
Approximately 7.5 mg of the extracted product 2-hydroxy-pentan-3-one was added to 15 mg (R,R)- or (S,S)-BMBA-p-Me (dissolved in 200-300 µl CDCl3) and analyzed by ^13C NMR with the readout adjusted to 0.001 ppm/point (sw = 239 ppm, td = 512k) (Fiorentino, A. et al., Tetrahedron., 62:8952-8958 (2006)). The absolute configuration was determined based on the sign of ΔδRR-SS (δ(R,R)-BMBA-p-Me - δ(S,S)-BMBA-p-Me) for the α-carbons adjacent to the hydroxymethine unit as formulated in the following model shown in Scheme 3 (valid for saturated secondary alcohols of acyclic and cyclic compounds): [drawing 7]
Cofactor regeneration: A prerequisite for the production of α-hydroxycarbonyl compounds is the regeneration of the expensive coenzymes and the stability of the protein catalysts. By coupling two coenzyme-dependent enzyme reactions, NADPH can be continuously regenerated. […]

[5] = target: T1, Gox0644; test: Kinetic constants from purified enzyme by Lineweaver-Burk plots; assay type: biochemical
Experimental: as §2, §3

[6] = tested on: CCC(=O)C(C)=O; test: as above; assay type: biochemical, Gluconobacter oxydans; details: other: 40 mM KPB at optimal pH and 30 °C, substrate 0.025 to 10 mM
Experimental: as §2, §3

[7] = tested on: O=CC(=O)c1ccccc1; test: as above; assay type: biochemical, Gluconobacter oxydans; details: other: 40 mM KPB at optimal pH and 30 °C, substrate 0.025 to 10 mM
Experimental: as §2, §3

[8] = substrate: CC(=O)C=O; test: as above; assay type: biochemical, Gluconobacter oxydans; details: other: 40 mM KPB at optimal pH and 30 °C, substrate 0.025 to 10 mM
Experimental: as §2, §3

[9] = substrate: CCC(=O)C(C)=O; test: as above; assay type: biochemical, Gluconobacter oxydans; details: other: 40 mM KPB at optimal pH and 30 °C, substrate 0.025 to 10 mM; remark: listed apart in the source
Experimental: as §2, §3

[10] = substrate: O=CC(=O)c1ccccc1; test: as above; assay type: biochemical, Gluconobacter oxydans; details: other: 40 mM KPB at optimal pH and 30 °C, substrate 0.025 to 10 mM; remark: listed apart in the source
Experimental: as §2, §3

[11] = substrate: CCCC(=O)C(C)=O; test: as above; assay type: biochemical, Gluconobacter oxydans; details: other: 40 mM KPB at optimal pH and 30 °C, substrate 0.025 to 10 mM
Experimental: as §2, §3

With CC(=O)C=O [methylglyoxal] the “Gox0644 U/mg*” value [1] was 3.4 U/mg, the “Gox1615 U/mg*” value [2] was 23.0 U/mg and the “Specific Activity (U/mg)*” value [2] was 23.0 U/mg. The Vmax [3] was 23 U/mg protein.

CC(=O)C(=O)c1ccccc1 [1-phenyl-1,2-propanedione] was tested, and the “Gox0644 U/mg*” value [1] was 75.4 U/mg, the activity ([1]; substrates showing the highest activities) was 75 U/mg protein and the “Gox1615 U/mg*” value [2] was 5.4 U/mg. For the same molecule, the “Specific Activity (U/mg)*” value [2] was 5.4 U/mg, the “Product (stereoselective reduction)” value ([4]; NMR with chiral solvent BMBA-p-Me) was 1-phenyl-2R-hydroxy-propanone and the “Product (regioselective reduction)” value ([4]; determined by NMR analysis) was 1-phenyl-2-hydroxy-propanone and 1-phenyl-2-hydroxy-1-propanone.

O=CC(=O)c1ccccc1 [phenylglyoxal] was tested, and the “Gox0644 U/mg*” value [1] was 74.7 U/mg, the “Gox1615 U/mg*” value [2] was 19.1 U/mg and the “Specific Activity (U/mg)*” value [2] was 19.1 U/mg. For the same molecule, the Vmax [5] was 75 U/mg protein.

With Gox0644 (Gluconobacter oxydans 621H) the Km [6] was 5.7 mM, the Vmax [6] was 69.6 µmol/min x mg and the Km [7] was 4.8 mM. For the same molecule, the Vmax [7] was 74.7 µmol/min x mg.

B1: Gox1615 (Gluconobacter oxydans 621H) (protein)
chain: T2 sequence (Q5FQJ0 1-332)
B1 showed a Km [8] of 4.3 mM, a Vmax [8] of 23.0 µmol/min x mg and a Km [9] of 4.0 mM. It also gave a Vmax [9] of 7.0 µmol/min x mg, a Km [10] of 4.3 mM and a Vmax [10] of 23 U/mg protein. It also gave a Km [11] of 4.0 mM and a Vmax [11] of 7.0 U/mg protein.
